Measured values from patent publication US12678438B2, “Treatment of cancer with CDK inhibitors” (THE TRUSTEES OF THE UNIVERSITY OF PENNSYLVANIA, priority 2019, dated 2026).

Legend:
AR-negative cells = experiment: Cell viability assay (Cell-Titer GLO), GI50; assay type: cell-based; details: Homo sapiens; three AR-negative cells, 96 h incubation
Experimental: (§1) Cell viability assays were performed by seeding the cells in 96-well plates at 2500-10000 cells/well (optimum density for growth) in a total volume of 100 μL complete media. Serially diluted compounds/drugs in 100 μL media were added to the cells 24 h post seeding. Following 96 h incubation, cell viability was assessed by Cell-Titer GLO (Promega, PR G7571). The measurements were normalized and regression curves were fitted to calculate GI50 using GraphPad Prism software.

AR-dependent PCa lines = experiment: Cell viability assay (Cell-Titer GLO), GI50; assay type: cell-based; details: Homo sapiens; five AR-dependent PCa lines, 96 h incubation
Experimental: as §1

[1] = system: AR target proteins (ERG, MYC, PSA); experiment: Immunoblot of AR target proteins; assay type: cell-based, human
Experimental: (§2) Cell lysates were prepared with RIPA buffer (Boston Bioproducts, BP-115DG)-10 mM Tris-HCl pH 7.5, 1 mM EDTA, 400 mM NaCl, 0.5% NP-40 and 1 mM DTT, supplemented with protease inhibitor cocktail (Pierce, A32965) and phosphatase inhibitor (Thermo, 1861280). For immunoblotting 200 μg total protein extract was boiled in sample buffer and 15-25 μg aliquots were separated by SDS-PAGE and transferred onto Polyvinylidene Difluoride membrane (GE Healthcare, IPVH00010). The membrane was incubated for one hour in blocking buffer [Tris-buffered saline, 0.1% Tween (TBS-T), 5% nonfat dry milk followed by overnight incubation on a rocker at 4° C. with the primary antibody. Following a wash with TBS-T, the blot was incubated with horseradish peroxidase-conjugated secondary antibody for 2 hrs on a rocker at room temperature. The blots were washed again and signals were visualized using enhanced chemiluminescence system as per manufacturer's protocol (GE Healthcare) or Kwik Quant Imager (Kindle Biosciences). […]

[2] = target: CAK complex-CDK7/CyclinH/MAT1 (Homo sapiens, UniProt P50613); experiment: In vitro kinase assay, CAK complex with GST-MED1 protein, immunoblot; assay type: biochemical; details: 60 min at 30° C.
Sequence of CAK complex-CDK7/CyclinH/MAT1 (P50613 whole entry): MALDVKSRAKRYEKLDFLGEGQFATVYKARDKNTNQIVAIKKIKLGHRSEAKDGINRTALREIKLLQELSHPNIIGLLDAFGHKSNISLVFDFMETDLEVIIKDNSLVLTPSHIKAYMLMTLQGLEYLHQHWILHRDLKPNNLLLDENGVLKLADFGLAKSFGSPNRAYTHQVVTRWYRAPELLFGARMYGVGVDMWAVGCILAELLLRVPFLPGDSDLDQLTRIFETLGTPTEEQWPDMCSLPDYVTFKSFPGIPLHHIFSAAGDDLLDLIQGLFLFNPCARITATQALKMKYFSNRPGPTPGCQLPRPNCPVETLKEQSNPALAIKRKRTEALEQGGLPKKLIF
Sequence of CAK complex-CDK7/CyclinH/MAT1 (P51946 whole entry partner): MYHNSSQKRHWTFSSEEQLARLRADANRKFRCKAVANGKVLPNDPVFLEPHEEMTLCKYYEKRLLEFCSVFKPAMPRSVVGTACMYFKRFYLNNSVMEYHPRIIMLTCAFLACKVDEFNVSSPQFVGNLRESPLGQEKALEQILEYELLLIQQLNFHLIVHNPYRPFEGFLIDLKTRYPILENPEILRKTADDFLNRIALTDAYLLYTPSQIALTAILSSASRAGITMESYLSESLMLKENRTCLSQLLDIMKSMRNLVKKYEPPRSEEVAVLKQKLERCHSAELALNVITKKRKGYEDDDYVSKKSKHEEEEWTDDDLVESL
Sequence of CAK complex-CDK7/CyclinH/MAT1 (P51948 whole entry partner): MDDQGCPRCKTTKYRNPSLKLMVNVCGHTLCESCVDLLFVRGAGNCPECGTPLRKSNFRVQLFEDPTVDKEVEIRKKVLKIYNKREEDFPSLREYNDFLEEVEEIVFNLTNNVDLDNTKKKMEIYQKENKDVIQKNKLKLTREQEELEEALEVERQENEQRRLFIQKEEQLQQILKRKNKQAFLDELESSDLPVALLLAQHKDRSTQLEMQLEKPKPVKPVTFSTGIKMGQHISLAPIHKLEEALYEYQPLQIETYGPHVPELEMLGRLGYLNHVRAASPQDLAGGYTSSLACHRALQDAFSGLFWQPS
Experimental: The kinase assay was performed by preparing the master mixture of 3 ul (5×) kinase assay buffer, 0.5 ul of 500 uM ATP (BPS Bioscience, 79603), 1.25 ul (1 ug/ul) Human Recombinant GST-MED1 protein (Lifespan Biosciences, LS-G59680-25), and 7.75 ul of kinase assay grade water per reaction for the desired number of reactions. […] Additionally, kinase assay reaction mixtures containing no ATP and CDK7 were used as negative controls. Next, CAK complex-CDK7/CyclinH/MAT1 enzyme (BPS Bioscience) was thawed and diluted to (10 ng/111) in 1× kinase assay buffer. The reactions were initiated by adding 10 ul of diluted CAK complex to the designated wells and incubated at 30° C. for 60 min. After the incubation the reaction was stopped, and the mixture were analyzed through western blotting.

p-MED1 (p-T1457 MED1) = experiment: Immunoblot of p-MED1 in AR negative RWPE and DU145 cells; assay type: cell-based, human; details: RWPE and DU145, highest tested concentration
Experimental: as §2

AR-positive cells = experiment: Long-term colony formation assay; assay type: cell-based, human; details: 50 nM THZ1, 12-14 days
Experimental: For the long-term colony formation assay, 10,000-50,000 cells/well in six-well plates (n=3) were seeded and treated with the required drugs/compounds or vehicle for 14 days. Media was refreshed every 4-5 days. Colonies were fixed and stained using 0.5% (w/v) crystal violet (Sigma, C0775) in 20% (v/v) methanol for 30 min, washed with distilled deionized water, and air-dried. To quantify staining, we washed the stained wells with 500 μL 10% acetic acid and using colorimetric assays determined the absorbance at 590 nm using a spectrophotometer (Synergy HT, BioTek Instruments, Vermont-USA).

[3] = system: AR-negative PC3 and DU145 cells; experiment: Annexin V-FITC apoptosis analysis; assay type: cell-based, human
Experimental: (§3) Apoptosis induction was quantified using the Annexin-V and FITC Apoptosis Kit, as per manufacturer's instructions. Briefly LNCaP, VCaP, DU145 and PC3 cells were plated at a density of 5×10^5 cells per well in a 6-well culture plate. After subsequent treatments, the cells were harvested following incubation with a staining solution containing 10 μL propidium iodide and 5 μL Annexin for 10 min and analyzed by flow cytometry (BD FACS Aria II, BD Biosciences, San Jose).

[4] = system: AR-positive LNCaP and VCaP cells; experiment: Annexin V-FITC apoptosis analysis; assay type: cell-based, human
Experimental: as §3

## CN(C)C/C=C/C(=O)Nc1ccc(C(=O)Nc2cccc(Nc3ncc(Cl)c(-c4c[nH]c5ccccc45)n3)c2)cc1 [THZ1]
AR-negative cells
  GI50: 400 to 600 nM
AR-dependent PCa lines
  GI50: 50 to 170 nM
[1]; LNCaP and VCaP
  AR target protein expression: decreased AR target protein expression
[1]; VCaP, dose and time-dependent
  ERG levels: reduction in ERG levels
[2]
  Threonine phosphorylation of GST-MED1 (aa 1391-1490) at T1457: completely inhibited
p-MED1 (p-T1457 MED1)
  p-MED1 or pS5-PolII levels: no such decrease in p-MED1 or pS5-PolII levels
AR-positive cells
  long-term colony formation: severely inhibited long-term colony formation
[3]
  apoptosis: not observed
[4]
  apoptosis: induced robust apoptosis
